The text below walks through data of publication PMC7366784 (Medical Science Monitor : International Medical Journal of …, 2020).

One data set concerns C. trachomatis. As to conditions: added to the replication phase of developmental cycle; cited from earlier work.
The subject of the next data set is recombinant cHtrA. The format is in vitro ADME, C. trachomatis serovar D. Conditions: AMP 100 μg/mL, cHtrA 100 μg/mL, 37°C, 30 min; Coomassie blue staining.
Data set [1] concerns MT-S247A (recombinant cHtrA mutant). The format is in vitro ADME, C. trachomatis serovar D. As to conditions: AMP 100 μg/mL, mutant 100 μg/mL, 37°C, 30 min.
The subject of data set [2] is MT-H143A (recombinant cHtrA mutant). In kind it is in vitro ADME, C. trachomatis serovar D. Conditions: AMP 100 μg/mL, mutant 100 μg/mL, 37°C, 30 min.

Each structure is given as a SMILES string.

`CC(C)C(NC(=O)[C@@H]1CCCN1C(=O)[C@@H](NC(=O)OC(C)(C)C)C(C)C)P(=O)(Oc1ccccc1)Oc1ccccc1` (stereo partly shown) [JO146]: the “Effect on C. trachomatis” value with C. trachomatis was “lethal to C. trachomatis”.
Turning to `CC[C@H](C)[C@H](NC(=O)[C@H](CCCCN)NC(=O)[C@H](CCC(=O)O)NC(=O)[C@H](CCCCN)NC(=O)[C@H](CO)NC(=O)[C@H](CCCCN)NC(=O)[C@H](CCCNC(=N)N)NC(=O)[C@H](Cc1ccccc1)NC(=O)[C@H](Cc1ccccc1)NC(=O)[C@H](CC(=O)O)NC(=O)CNC(=O)[C@H](CC(C)C)NC(=O)[C@@H](N)CC(C)C)C(=O)NCC(=O)N[C@@H](CCCCN)C(=O)N[C@@H](CCC(=O)O)C(=O)N[C@@H](Cc1ccccc1)C(=O)N[C@@H](CCCCN)C(=O)N[C@@H](CCCNC(=N)N)C(=O)N[C@H](C(=O)N[C@H](C(=O)N[C@@H](CCC(N)=O)C(=O)N[C@@H](CCCNC(=N)N)C(=O)N[C@H](C(=O)N[C@@H](CCCCN)C(=O)N[C@@H](CC(=O)O)C(=O)N[C@@H](Cc1ccccc1)C(=O)N[C@@H](CC(C)C)C(=O)N[C@@H](CCCNC(=N)N)C(=O)N[C@@H](CC(N)=O)C(=O)N[C@@H](CC(C)C)C(=O)N[C@H](C(=O)N1CCC[C@H]1C(=O)N[C@@H](CCCNC(=N)N)C(=O)N[C@H](C(=O)N[C@@H](CCC(=O)O)C(=O)N[C@@H](CO)C(=O)O)[C@@H](C)O)C(C)C)[C@@H](C)CC)C(C)C)[C@@H](C)CC` [LL-37], in the data set with recombinant cHtrA, the “Degradation of AMP by 100 μg/mL recombinant cHtrA” value is “degraded all LL-37”. In addition, in data set [1], the “Degradation of AMP by MT-S247A” value was “unable to degrade LL-37”. Besides, the “Degradation of AMP by MT-H143A” value in data set [2] is given as “unable to degrade LL-37”.
